# Read-outs that look alike come from different tables or passages of the source.
# How the values were obtained:
# guinea pigs [1] = test system: guinea pigs
# Description: Intraventricular pressure was monitored using a Millar catheter. […] The upper traces depict ECG recording from a subcutaneous electrode (lead II). The middle traces show left ventricle pressure and the lower traces the dp/dt (change in pressure with time).
# guinea pigs [2] = test system: guinea pigs; remark: listed apart in the source
# Description: Guinea pigs were maintained under anesthesia, the jugular artery was catheterized and blood pressure was monitored via a pressure transducer. Two ECG electrodes were placed under the skin and ECG was monitored following amplification.
# guinea pigs [3] = experiment: Toxicity on injection to guinea pigs; conditions: doses of up to 13 mg/kg
# guinea pig atrial muscle = experiment: Heart muscle contractility of isolated atrial strips
# Procedure: Experiments were conducted on frog atrial muscle or guinea pigs atrium. The animals were anaesthetized by MS22 (frogs) or pentobarbital (guinea pigs) (10 mg/kg). Their hearts were removed quickly into Krebs-Henseleit buffer. Atrial strips were mounted vertically in a chamber at 37° C. The muscle contractility was recorded by a transducer (FSG-01, Experimentia) connected to a computer Acodas software (DataQ instruments). […] The effect of compound 17b at 10 nM to frog atrial muscle. 2.
# Mg^++-ATPase = experiment: Mg++-ATPase activity in rat brain microsomal fraction (with 1 mM ouabain); assay type: biochemical
# Procedure: (§1) Total and Na^+ and K^+ dependent ATPase activities were measured in rat brain microsomal fraction. Enzyme activity was measured by the colorimetric determination of inorganic phosphate after the incubation of microsomes (30 μg protein/reaction) at 37° C. in a solution (final volume 500 μl) containing (final concentrations) Tris-HCl ([…], pH 7.4), NaCl (100 mM), KCl (10 mM), MgCl2 (4 mM) and ATP (2 mM, Tris, vanadium free). After 10 minutes preincubation, the ATP was added to initiate the reaction. Reactions were terminated by the addition of 100 μl 5% trichloroacetic acid and the precipitate was removed by centrifugation. Mg^++-ATPase activity was determined by the addition of ouabain (1 mM) to the assay mixture.
# Na^+,K^+-ATPase = experiment: Na+,K+-ATPase activity in rat brain microsomal fraction (colorimetric inorganic phosphate); assay type: biochemical
# Procedure: as §1
# K562 cells = experiment: Morphological changes / differentiation of K562 cells; assay type: cell-based
# Description: Morphological changes of K562 cells, grown in appropriate media, was followed. Control cells after 2 days in culture. • FIG. 4b. Cells after 2 days in culture, the presence of 10^−8M ouabain. […] Cells after 2 days in culture, in the presence of 10^−8M compound 13b. […] Control cells after 6 days in culture. • FIG. 4e. Cells after 6 days in culture, in the presence of 10^−7M ouabain. […] Cells after 6 days in culture, in the presence of 10^−6M compound 13b.
smiles,measurement,setting,value
"C[C@]12CC[C@H]3[C@@H](CC[C@@H]4C[C@@H](O)CC[C@@H]43)[C@@H]1[C@H](O)C[C@@H]2c1coc(CO)c1 (single isomer, unassigned) [13-3 (β isomer), 4-(3′β,15′βdihydroxy-5β-estran-17β-yl)furan-2-methyl alcohol]",Cardiac contractility in vivo (in words),guinea pigs [1]; 2.6 mg/kg injected to guinea pigs (FIG. 5A),induced an elevation in cardiac contractility
"C[C@]12CC[C@H]3[C@@H](CC[C@@H]4C[C@@H](O)CC[C@@H]43)[C@@H]1[C@H](O)C[C@@H]2c1coc(CO)c1 [Compound 13-3, 4-(3′β,15′βdihydroxy-5β-estran-17β-yl)furan-2-methyl alcohol]",Effect on digoxin-induced cardiac arrhythmia,"guinea pigs [2]; 2.5 mg/kg subcutaneously 30 minutes before 2.5 mg/kg digoxin, guinea pigs (FIG. 6C)",prevented induction of cardiac arrhythmia
same,LVEDP (left ventricle end diastolic pressure),"guinea pigs [1]; β isomer of 13-3, 2.6 mg/kg, 10 min after injection, control 5.52",51.70 mmHg
same,LVSP (left ventricle systolic pressure),"guinea pigs [1]; β isomer of 13-3, 2.6 mg/kg, 10 min after injection, control 10.83",67.88 mmHg
same,HR (heart rate),"guinea pigs [1]; β isomer of 13-3, 2.6 mg/kg, 10 min after injection, control 226.2",295.74 beat/min
same,dp/dt (change in pressure with time),"guinea pigs [1]; β isomer of 13-3, 2.6 mg/kg, 10 min after injection, control 2248.19",3319.11 mmHg/sec
same,LVEDP (left ventricle end diastolic pressure),"guinea pigs [1]; β isomer of 13-3, 2.6 mg/kg, 33 min post injection, control 5.52",51.98 mmHg
same,LVSP (left ventricle systolic pressure),"guinea pigs [1]; β isomer of 13-3, 2.6 mg/kg, 33 min post injection, control 10.83",124.61 mmHg
same,HR (heart rate),"guinea pigs [1]; β isomer of 13-3, 2.6 mg/kg, 33 min post injection, control 226.2",325 beat/min
same,dp/dt (change in pressure with time),"guinea pigs [1]; β isomer of 13-3, 2.6 mg/kg, 33 min post injection, control 2248.19",4215.86 mmHg/sec
same,LVEDP (left ventricle end diastolic pressure),"guinea pigs [1]; β isomer of 13-3, 2.6 mg/kg, 7 hr. post injection, control 5.52",37.57 mmHg
same,LVSP (left ventricle systolic pressure),"guinea pigs [1]; β isomer of 13-3, 2.6 mg/kg, 7 hr. post injection, control 10.83",107.45 mmHg
same,HR (heart rate),"guinea pigs [1]; β isomer of 13-3, 2.6 mg/kg, 7 hr. post injection, control 226.2",340 beat/min
same,dp/dt (change in pressure with time),"guinea pigs [1]; β isomer of 13-3, 2.6 mg/kg, 7 hr. post injection, control 2248.19",5146.12 mmHg/sec
same,Toxicity when injected to guinea pigs,guinea pigs [3],not toxic
"C[C@H]1O[C@@H](O[C@H]2[C@@H](O)C[C@H](O[C@H]3[C@@H](O)C[C@H](O[C@H]4CC[C@@]5(C)[C@H](CC[C@@H]6[C@@H]5C[C@@H](O)[C@]5(C)[C@@H](C7=CC(=O)OC7)CC[C@]65O)C4)O[C@@H]3C)O[C@@H]2C)C[C@H](O)[C@@H]1O [Digoxin, digoxin, reference compound]",Time to lethal cardiac arrhythmia,"guinea pigs [2]; 2.5 mg/kg subcutaneously, guinea pigs (FIG. 6B)",2.5 h
same,Cardiac contractility in vivo (in words),guinea pigs [1]; 2 mg/kg injected to guinea pigs,increase in contractilty
same,Bradycardia,"guinea pigs [1]; 2 mg/kg, guinea pigs (FIG. 5B)",induced bradycardia
same,Death after,"guinea pigs [1]; digoxin 2 mg/kg, guinea pig",40 min
same,LVEDP (left ventricle end diastolic pressure),"guinea pigs [1]; digoxin 2 mg/kg, control 17.3",49.78 mmHg
same,LVSP (left ventricle systolic pressure),"guinea pigs [1]; digoxin 2 mg/kg, control 75",232.4 mmHg
same,HR (heart rate),"guinea pigs [1]; digoxin 2 mg/kg, control 327",300 beat/min
same,dp/dt (change in pressure with time),"guinea pigs [1]; digoxin 2 mg/kg, control 1620.7",4248.4 mmHg/sec
"C[C@]12CC[C@H]3[C@@H](CC[C@@H]4CC(OCc5ccccc5)CC[C@@H]43)[C@@H]1[C@H](O)C[C@@H]2c1coc(C2OCCO2)c1 (stereo partly drawn) [Compound 13b, 4-(′3-benzyloxy-15′β-hydroxy-5β-estran-17′β-yl)furan-2-carbaldehyde ethylene acetal]",Increase in the force of contraction,"guinea pig atrial muscle; guinea pig atrial muscle preparation, after 10 minutes (FIG. 3a)",about 30%
same,Heart muscle contractility (in words),"guinea pig atrial muscle; guinea pig muscle strip, 10 minutes after addition (FIG. 3a)",increase of heart muscle contractility is evident
same,Mg^++-ATPase activity (% of control),Mg^++-ATPase; 1 nM compound,100 % of control
same,Mg^++-ATPase activity (% of control),Mg^++-ATPase; 10 nM compound,86 % of control
same,Mg^++-ATPase activity (% of control),Mg^++-ATPase; 100 nM compound,88 % of control
same,Mg^++-ATPase activity (% of control),Mg^++-ATPase; 1000 nM compound,89 % of control
same,Mg^++-ATPase activity (% of control),Mg^++-ATPase; 10000 nM compound,86 % of control
same,"Na^+, K^+-ATPase activity (% of control)","Na^+,K^+-ATPase; 1 nM compound",100 % of control
same,"Na^+, K^+-ATPase activity (% of control)","Na^+,K^+-ATPase; 10 nM compound",64 % of control
same,"Na^+, K^+-ATPase activity (% of control)","Na^+,K^+-ATPase; 100 nM compound",38 % of control
same,"Na^+, K^+-ATPase activity (% of control)","Na^+,K^+-ATPase; 1000 nM compound",22 % of control
same,"Na^+, K^+-ATPase activity (% of control)","Na^+,K^+-ATPase; 10000 nM compound",2 % of control
same,K562 cell morphology / differentiation,"K562 cells; 10^−6M, 6 days in culture","Cell elongation, indicative of differentiation"
same,K562 cell morphology / differentiation,"K562 cells; 10^−8M, 2 days in culture",differentiation manifested in cells elongation
same,Toxicity when injected to guinea pigs,guinea pigs [3],not toxic
"C[C@@H]1O[C@@H](O[C@H]2C[C@@H](O)[C@]3(CO)[C@H]4[C@H](O)C[C@]5(C)[C@@H](C6=CC(=O)OC6)CC[C@]5(O)[C@@H]4CC[C@]3(O)C2)[C@H](O)[C@H](O)[C@H]1O [ouabain, reference compound]",K562 cell morphology / differentiation,"K562 cells; 10^−7M, 6 days in culture",Cell degradation and death is evident
same,K562 cell morphology / differentiation,"K562 cells; 10^−8M, 2 days in culture",does not show any effects

# Source: patent US7087590B2, “19-norbufalin derivatives, their preparation and pharmaceutical compositions containing them” (Yissum Research Development Company of the Hebrew …, priority 2000, dated 2006)
